The source of these data is patent US20230181578A1, “MODULATION OF MIXED LINEAGE KINASE DOMAIN-LIKE PROTEIN SIGNALING” (EBERHARD KARLS UNIVERSITÄT TÜBINGEN, priority 2020, published 2023).

Data set [1] deals with phosphorylated MLKL. The experiment in a line: MLKL phosphorylation, Western-blot, TSZ-treated HT-29 wt cells. The format is cell-based, human. The conditions noted are these: FIG. 6C. From the text: (§1) A-B) Dose-dependence of the inhibitory effect of MBA-h1 (A) or MBA-m1M (B) on necroptotic cell death in human (HT-29) and mouse (NIH-3T3) cells. C-D) Effect of MBA-h1 (C) or MBA-m1 (D) on MLKL phosphorylation. E-F) Effect of MBA-h1 (E) or MBA-m1 (F) on MLKL translocation to the plasma membrane. HT-29 (C and E) or NIH-3T3 (D and F) wt cells were TSZ-treated in the presence or not of the inhibitors. NSA was used as a control in C and E. G) Inhibitory effect of MBA-m1 in MLKL ko cells transfected with mMLKL2 or the mutant mMLKL2_I84A_F87A. Cells were transfected with the different variants of MLKL-GFP. The dead cell population was calculated from transfected cells. Individual values from at least three independent experiments are shown. H-I) MBA-m1 ameliorates dermatitis in Tnfr1-KO HoipE-KO mice. H) Representative images of mice before and after 2 weeks' treatment with MBA-m1. I) Severity score of dermatitis assessed after and before treatment with the inhibitor. […] To quantify the sore of region affected, 0 values were assigned to no lesion, and 1 values were assigned when lesions were found in either neck, back, flank or head, being the sum of these elements taken as the final score. To quantify the character of lesions, 0 values were assigned to no lesions, 1 to excoriations one or small punctuate crust, 2 to multiple punctuate crust or coalescing crust, 3 to erosion, ulceration or bleeding. […]

Another data set concerns the target T1, hMLKL1 (Homo sapiens, UniProt Q8NB16).
T1 construct: GFP; expressed in transfected cells; host or cells: HT-29 MLKL ko cells
T1 sequence (Q8NB16 1-471): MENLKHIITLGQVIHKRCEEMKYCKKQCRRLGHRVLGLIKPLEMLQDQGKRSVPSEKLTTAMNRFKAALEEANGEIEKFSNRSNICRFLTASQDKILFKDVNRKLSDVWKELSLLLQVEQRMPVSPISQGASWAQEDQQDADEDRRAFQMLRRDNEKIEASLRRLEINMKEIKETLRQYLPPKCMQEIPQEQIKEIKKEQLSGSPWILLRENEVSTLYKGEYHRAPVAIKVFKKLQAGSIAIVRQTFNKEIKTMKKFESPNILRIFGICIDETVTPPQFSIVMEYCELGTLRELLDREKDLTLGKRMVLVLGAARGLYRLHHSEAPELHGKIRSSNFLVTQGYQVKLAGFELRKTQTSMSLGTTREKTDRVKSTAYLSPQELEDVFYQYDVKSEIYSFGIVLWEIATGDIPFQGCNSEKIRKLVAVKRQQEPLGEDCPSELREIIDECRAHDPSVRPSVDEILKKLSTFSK
In words: Necroptosis inhibition in HT-29 MLKL ko cells re-expressing hMLKL1. The format is cell-based. The conditions noted are these: HT-29 MLKL ko re-expressing hMLKL1. From the text: The species-specificity was expected considering the large difference in the He/groove interactions between mouse and human MLKL (FIGS. 3 and 4).

The next data set relates to HT-29. The experiment in a line: Necroptosis inhibition assay, TSZ-treated human HT-29 cells. The format is cell-based. From the text:
(§2) A-B) Dose-dependence of the inhibitory effect of MBA-h1 (A) or MBA-m1M (B) on necroptotic cell death in human (HT-29) and mouse (NIH-3T3) cells. C-D) Effect of MBA-h1 (C) or MBA-m1 (D) on MLKL phosphorylation. E-F) Effect of MBA-h1 (E) or MBA-m1 (F) on MLKL translocation to the plasma membrane. HT-29 (C and E) or NIH-3T3 (D and F) wt cells were TSZ-treated in the presence or not of the inhibitors. NSA was used as a control in C and E. G) Inhibitory effect of MBA-m1 in MLKL ko cells transfected with mMLKL2 or the mutant mMLKL2_I84A_F87A. Cells were transfected with the different variants of MLKL-GFP. The dead cell population was calculated from transfected cells. Individual values from at least three independent experiments are shown. H-I) MBA-m1 ameliorates dermatitis in Tnfr1-KO HoipE-KO mice. H) Representative images of mice before and after 2 weeks' treatment with MBA-m1. I) Severity score of dermatitis assessed after and before treatment with the inhibitor. Tnfr1-KO HoipE-KO (n=3). To quantify the sore of region affected, 0 values were assigned to no lesion, and 1 values were assigned when lesions were found in either neck, back, flank or head, being the sum of these elements taken as the final score. To quantify the character of lesions, 0 values were assigned to no lesions, 1 to excoriations one or small punctuate crust, 2 to multiple punctuate crust or coalescing crust, 3 to erosion, ulceration or bleeding. Data are presented as mean values±s.e.m.
(§3) To evaluate the necroptotic potential of the different mMLKL isoforms, each of the three isoforms were re-expressed in NIH-3T3 MLKL knock out (ko) cells following induction of necroptosis with a mixture of TNF, a Smac mimetic compound (LCL-161) and the pan-caspase inhibitor zVAD (TSZ), which is the most commonly used necroptosis-inducing cocktail. The inventors quantified cell death by flow cytometry (FIG. 1B) and confocal microscopy (FIG. 1C) using propidium iodide (PI) as a marker of irreversible plasma membrane disruption. As expected, mMLKL3 was intrinsically active, on account of its lack of the psK domain. […]

In data set [2] the test system is MLKL. In words: MLKL translocation to the plasma membrane, TSZ-treated HT-29 wt cells. The class given is cell-based, human. The note with it: FIG. 6E.
From the text: as §1

Data set [3] concerns MLKL. The experiment in a line: MLKL translocation to the plasma membrane, TSZ-treated NIH-3T3 wt cells. The format is cell-based, mouse. The conditions noted are these: FIG. 6F.
From the text: as §1

In a further data set the test system is Tnfr1KO;HoipEKO mice. The experiment in a line: Necroptosis-driven dermatitis in Tnfr1KO;HoipEKO mice. The class given is in vivo, mouse. The conditions noted are these: treated daily for three weeks from 30 to 40 days of age, end of treatment.
From the text: as §2, with “H) Representative images of mice before and after 2 weeks' treatment with MBA-m1.” left out, “values±s.e.m. […]” for “values±s.e.m.”

The subject of a further data set is NIH-3T3 WT cells. In words: Necroptosis inhibition assay, TSZ-treated mouse NIH-3T3 WT cells. The format is cell-based.
From the text: as §2, §3

The next data set has as its target T2, mMLKL2_I84A_F87A (Mus musculus, UniProt Q9D2Y4, F87A/I84A).
T2 construct: GFP; expressed in transfected cells
T2 sequence (Q9D2Y4 1-464 isoform Q9D2Y4-2 I84A/F87A): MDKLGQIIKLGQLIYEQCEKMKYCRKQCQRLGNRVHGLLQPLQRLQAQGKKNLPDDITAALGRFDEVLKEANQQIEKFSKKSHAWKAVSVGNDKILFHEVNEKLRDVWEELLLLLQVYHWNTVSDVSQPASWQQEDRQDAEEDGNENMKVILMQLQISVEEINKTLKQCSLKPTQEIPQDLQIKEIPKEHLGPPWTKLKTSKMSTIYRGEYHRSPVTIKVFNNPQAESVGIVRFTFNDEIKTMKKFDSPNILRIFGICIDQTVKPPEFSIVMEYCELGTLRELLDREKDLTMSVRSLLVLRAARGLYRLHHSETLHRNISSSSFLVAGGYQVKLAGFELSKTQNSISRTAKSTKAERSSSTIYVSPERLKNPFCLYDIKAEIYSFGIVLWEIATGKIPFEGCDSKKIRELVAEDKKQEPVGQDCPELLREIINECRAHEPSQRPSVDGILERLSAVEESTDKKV
In words: Cell death assay in MLKL ko cells transfected with mutant mMLKL2_I84A_F87A. The class given is cell-based. The note with it: FIG. 6G.
From the text: as §1

In the next data set the target is T3, mMLKL2 (Mus musculus, UniProt Q9D2Y4).
T3 construct: GFP; expressed in transfected cells; host or cells: NIH-3T3 MLKL ko cells
T3 sequence (Q9D2Y4 1-464 isoform Q9D2Y4-2): T2 sequence (Q9D2Y4 1-464 isoform Q9D2Y4-2 I84A/F87A) with A84I, A87F
The experiment in a line: Necroptosis inhibition in NIH MLKL ko cells containing mMLKL2. The format is cell-based.
From the text: as §1

Data set [4] relates to phosphorylated MLKL. The experiment in a line: MLKL phosphorylation, Western-blot, TSZ-treated NIH-3T3 wt cells. The format is cell-based, mouse. The conditions noted are these: FIG. 6D.
From the text: as §1

Each structure is given as a SMILES string. Substitutions are numbered along the chain they refer to.

`CN1CCN(c2ccc(-c3cccc(NC(=O)c4ccc5ccccc5c4)c3)nn2)CC1` [MBA-h1, N-[3-[6-(4-methylpiperazin-1-yl)pyridazin-3-yl]phenyl]naphthalene-2-carboxamide]: the “effect on MLKL phosphorylation” value in the data set with phosphorylated MLKL [1] is listed as “none of the compounds blocked the phosphorylation of MLKL”. The inhibition of necroptosis entry on hMLKL1 was “inhibited necroptosis”; in the data set with HT-29 (human HT-29 cells, dose-dependent (FIG. 6A)), “specifically inhibited necroptosis”. In the data set on HT-29 (HT-29 cells, FIG. 6A), the “concentrations at which inhibitory activity was observed” value is “lower than 10 μM”. Further, the toxicity entry with HT-29 (at inhibitory concentrations, FIG. 6A) was “without evidence of toxicity”. Besides, the “effect on MLKL translocation to the plasma membrane” value (shortened to “effect on MLKL translocation”) in the data set on MLKL [2] is recorded as “potently interfered with MLKL translocation to the plasma membrane”.
Turning to `COc1ccc2nc(C)cc(Nc3ccc(Oc4ccc5ccccc5c4)c(Cl)c3)c2c1` [MBA-m1, N-(3-chloro-4-naphthalen-2-yloxyphenyl)-6-methoxy-2-methylquinolin-4-amine], in the data set on MLKL [3], the “effect on MLKL translocation” value is “potently interfered with MLKL translocation to the plasma membrane”. Moreover, in the data set on Tnfr1KO;HoipEKO mice, the “dermatitis, severity score of skin lesions” value is on record as “significantly ameliorated dermatitis”. Also, in the data set on NIH-3T3 WT cells (NIH-3T3 cells, FIG. 6B, compared with MBA-h1 (lower than 10 μM)), the “concentrations at which necroptosis is inhibited” value is “able to inhibit necroptosis at similar concentrations”. For the same molecule, in the data set on NIH-3T3 WT cells (higher concentrations, FIG. 6B), the “concentrations at which toxicity was presented” value is 12.5 to 50 µM. Besides, the inhibition of necroptosis result is “specifically inhibited necroptosis” in the data set with NIH-3T3 WT cells (mouse NIH-3T3 WT cells, dose-dependent (FIG. 6B)) and “had the same effect” against mMLKL2. Moreover, at mMLKL2_I84A_F87A, the “inhibition of cell death mediated by mutant mMLKL2_I84A_F87A” value is “inert to inhibition”. Also, the “effect on MLKL phosphorylation” value in the data set with phosphorylated MLKL [4] is listed as “none of the compounds blocked the phosphorylation of MLKL”.
With `COc1nccnc1NS(=O)(=O)c1ccc(NC(=O)/C=C/c2ccc([N+](=O)[O-])s2)cc1` [NSA, reference compound], the “effect on MLKL translocation” value in the data set on MLKL [2] is “interfered with MLKL translocation to the plasma membrane”.
